Values quoted from earlier work in PubChem BioAssay AID1259410 (Chemical Carcinogenesis Research Information System (CCRIS), 2018).

Test system: rodent tumor promotion studies, tumor incidence
Experiment: CCRIS tumor promotion studies
[1] = Carcinogen: 7,12-DIMETHYLBENZ(A)ANTHRACENE, Doses [Carcinogen]: TOP, Route [Carcinogen]: DERMAL, Route [Promoter]: DERMAL, Species: MOUSE, Strain/Sex: FEMALE

Structure (SMILES): ClC(Cl)(Cl)Cl
- outcome (Carcinogen: 3'-METHYL-4-DIMETHYLAMINOAZOBENZENE, Doses [Carcinogen]: DIET, Route [Carcinogen]: ORAL, Species: RAT, Strain/Sex: FEMALE): liver
- outcome (Carcinogen: (+/-)-TRANS-7,8-DIHYDROBENZO[A]PYRENE-7,8-DIOL, 61443-57-0, Doses [Carcinogen]: 1 UG CO-ADMINISTERED WITH PROMOTER DOSE, Doses [Promoter]: 1 UG INJECTED INTO NEWLY HATCHED SAC-FRY CO-ADMINISTERED WITH CARCINOGEN DOSE (STUDY DURATION: 9 MO), Route [Carcinogen]: INJECTION, Route [Promoter]: INJECTION, Species: FISH, Strain/Sex: RAINBOW TROUT/MALE,FEMALE): liver: tumor
- outcome (Doses [Carcinogen]: 20 NG/SAC-FRY, Doses [Promoter]: 0, 1 ML/KG AT 21-DAY INTERVALS FOR A TOTAL OF 3 DOSES BEGINNING 25 D POST CARCINOGEN TREATMENT (STUDY DURATION: 3 MO), Route [Carcinogen]: INJECTION, Route [Promoter]: INTRAPERITONEAL, Species: FISH, Strain/Sex: RAINBOW TROUT): liver: basophilic carcinoma

Structure (SMILES): Cc1cc(=O)[nH]c(=S)[nH]1
- outcome (Carcinogen: 2-(ACETYLAMINO)FLUORINE, Doses [Carcinogen]: IG, Doses [Promoter]: IN DIET, Route [Carcinogen]: GAVAGE, Route [Promoter]: ORAL, Species: RAT, Strain/Sex: MALE,FEMALE): thyroid gland

Structure (SMILES): O=S1(=O)N=C(O)c2ccccc21
- outcome (Carcinogen: N-[4-(5-NITRO-2-FURYL)-2-THIAZOLYL]FORMAMIDE, 24554-26-5, Doses [Carcinogen]: 0.2% IN DIET FOR 6 WK, Doses [Promoter]: 0, 3.12% IN PROLAB DIET FOR 72 WK BEGINNING POST CARCINOGEN TREATMENT (STUDY DURATION: 78 WK), Route [Carcinogen]: ORAL, Route [Promoter]: ORAL, Species: RAT, Strain/Sex: F344/MALE): urinary bladder: carcinoma
- outcome (Carcinogen: N-[4-(5-NITRO-2-FURYL)-2-THIAZOLYL]FORMAMIDE, 24554-26-5, Doses [Carcinogen]: 0.2% IN DIET FOR 6 WK, Doses [Promoter]: 0, 5.2% IN PROLAB DIET FOR 72 WK BEGINNING POST CARCINOGEN TREATMENT (STUDY DURATION: 78 WK), Route [Carcinogen]: ORAL, Route [Promoter]: ORAL, Species: RAT, Strain/Sex: F344/MALE): urinary bladder: carcinoma, carcinoma or papilloma

Structure (SMILES): c1c[nH]cn1
- outcome (Carcinogen: N-METHYL-N-NITROSOUREA, 684-93-5, Doses [Carcinogen]: 40 MG/KG ONCE, Doses [Promoter]: 1000 MG/KG OF HIGH (20%) FAT DIET BEGINNING 1 WK POST CARCINOGEN DOSE AND CONTINUING FOR DURATION OF STUDY (STUDY DURATI, Route [Carcinogen]: SUBCUTANEOUS, Route [Promoter]: ORAL, Species: RAT, Strain/Sex: SPRAGUE-DAWLEY/FEMALE): mammary gland: tumor

Structure (SMILES): CCCCCCCCCC1(CCCCCC(=O)OC2C(C)C3(O)C(C=C(CO)CC4(O)C(=O)C(C)=CC43)C3C(C)(C)C23OC(C)=O)OCC(C)(C)N1[O] (stereo not drawn)
- outcome (Carcinogen: 7,12-DIMETHYLBENZ[A]ANTHRACENE, 57-97-6, Doses [Carcinogen]: 100 NMOL ONCE, Doses [Promoter]: 0, 5 NMOL 2/WK FOR 24 WK BEGINNING 1 WK POST CARCINOGEN DOSE (STUDY DURATION: 25 WK), Route [Carcinogen]: DERMAL, Route [Promoter]: DERMAL, Species: MOUSE, Strain/Sex: NMRI/FEMALE): skin: tumor

Structure (SMILES): C=CC(C)(C)c1ccc2c3c(c[nH]c13)C[C@@H](CO)NC(=O)[C@H](C(C)C)N2C
- outcome (Carcinogen: DIMETHYLBENZ[A]ANTHRACENE, 57-97-6, Doses [Carcinogen]: 100 UG IN 100 µL ACETONE APPLIED TO THE BACK ONCE, Doses [Promoter]: 5 UG IN 100 ML ACETONE APPLIED TO THE BACK 2/WK FOR 15 WK BEGINNING 1 WK POST CARCINOGEN DOSE THEN 10 UG 2/WK FOR 15 WK, Route [Carcinogen]: DERMAL, Route [Promoter]: DERMAL, Species: MOUSE, Strain/Sex: CD-1/FEMALE): skin: papilloma

Structure (SMILES): C[C@]12CC[C@@H]3c4ccc(OS(=O)(=O)O)cc4CC[C@H]3[C@@H]1CCC2=O
- outcome (Carcinogen: 7,12-Dimethylbenz[a]anthrene, 57-97-6, Doses [Carcinogen]: 5 mg in corn oil, intragastric, once, Doses [Promoter]: 100 ng/ml in drinking water, study duration 20 wk, Route [Carcinogen]: Oral, Route [Promoter]: Oral, Species: Rat, Strain/Sex: Sprague-Dawley/Female (16/group)): mammary gland: tumor

Structure (SMILES): CC(=O)O[C@]1(C(C)=O)CC[C@H]2[C@@H]3C[C@H](C)C4=CC(=O)CC[C@]4(C)[C@H]3CC[C@@]21C
- outcome (Carcinogen: 7,12-DIMETHYLBENZ[A]ANTHRACENE, 57-97-6, Doses [Carcinogen]: 1 MG IN 0.1 ML COTTONSEED OIL 1/WK AT WKS 9,10,12 AND 13 OF AGE, Doses [Promoter]: 0, 20 MG EACH IN 2 PELLETS IMPLANTED IN THE INTERSCAPULAR AREA AT 6 WK OF AGE (STUDY DURATION: 15 MO), Route [Carcinogen]: GAVAGE, Route [Promoter]: SUBCUTANEOUS IMPLANT, Species: MOUSE, Strain/Sex: CD2F1/FEMALE): mammary gland: tumor
- outcome (Carcinogen: METHYLNITROSOUREA, 684-93-5, Doses [Carcinogen]: 50 MG/KG BW ONCE, Doses [Promoter]: 0, 40 MG DEPOT EVERY 3 MO BEGINNING 1 WK POST CARCINOGEN DOSE (STUDY DURATION: 9 MO), Route [Carcinogen]: INTRAPERITONEAL, Route [Promoter]: SUBCUTANEOUS, Species: MOUSE, Strain/Sex: BALB/FEMALE): mammary gland: carcinoma
- outcome (Carcinogen: METHYLNITROSOUREA, 684-93-5, Doses [Carcinogen]: 50 MG/KG BW ONCE, Doses [Promoter]: 0, 40 MG DEPOT EVERY 3 MO BEGINNING 1 WK PRIOR TO CARCINOGEN DOSE (STUDY DURATION: 9 MO), Route [Carcinogen]: INTRAPERITONEAL, Route [Promoter]: SUBCUTANEOUS, Species: MOUSE, Strain/Sex: BALB/FEMALE): mammary gland: carcinoma

Structure (SMILES): CC(=O)Oc1ccccc1C(=O)O
- outcome (Carcinogen: N-(4-(5-NITRO-2-FURYL)-2-THIAZOLYL)FORMAMIDE, 24554-26-5, Doses [Carcinogen]: 0.2% IN DIET FOR 12 WK (TOTAL DOSE: 2.7 G), Doses [Promoter]: 0.5% IN DIET (TOTAL DOSE: 45.9 G) BEGINNING 2 D PRIOR TO SIMULTANEOUS ADMINISTRATION WITH CARCINOGEN FOR 12 WK THEN CONT, Route [Carcinogen]: ORAL, Route [Promoter]: ORAL, Species: RAT, Strain/Sex: F344/MALE): urinary bladder: transitional cell carcinoma
- outcome (Carcinogen: N-(4-(5-NITRO-2-FURYL)-2-THIAZOLYL)FORMAMIDE, 24554-26-5, Doses [Carcinogen]: 0.2% IN DIET FOR 12 WK (TOTAL DOSE: 3 G), Doses [Promoter]: 0.5% IN DIET (TOTAL DOSE: 39.9 G) BEGINNING 7 D POST LAST CARCINOGEN DOSE AND CONTINUING FOR DURATION OF STUDY (STUDY DU, Route [Carcinogen]: ORAL, Route [Promoter]: ORAL, Species: RAT, Strain/Sex: F344/MALE): urinary bladder: transitional cell carcinoma

Structure (SMILES): CCC(=O)Oc1ccc2c(c1)CC[C@@H]1[C@@H]2CC[C@]2(C)[C@@H](OC(=O)CC)CC[C@@H]12
- outcome (Carcinogen: 1,2-DIMETHYLHYDRAZINE, 540-73-8, Doses [Carcinogen]: 8 MG/KG BW 1/WK FOR 20 WK, Doses [Promoter]: 0, 0.1 ML OF A SOLUTION IN OLIVE OIL 1/WK FOR 30 WK ADMINISTERED 1 DAY PRIOR TO EACH CARCINOGEN DOSE AND CONTINUING FOR, Route [Carcinogen]: SUBCUTANEOUS, Route [Promoter]: SUBCUTANEOUS, Species: MOUSE, Strain/Sex: C3H/FEMALE): uterus: sarcoma

Structure (SMILES): C=C1/C(=C\C=C2/CCC[C@]3(C)[C@@H]([C@H](C)CCC(F)(F)C(C)(C)O)CC[C@@H]23)C[C@H](O)C[C@H]1O
- outcome (Carcinogen: 7,12-DIMETHYLBENZ[A]ANTHRACENE, 57-97-6, Doses [Carcinogen]: 50 NMOL IN 200 µL ACETONE 2/WK FOR 16 WK, Doses [Promoter]: 0, 0.05, 0.1 NMOL IN 200 µL ACETONE APPLIED 1 HR PRIOR TO CARCINOGEN DOSES 2/WK FOR 16 WK (STUDY DURATION: 16 WK), Doses [Promoter]: 0, 0.05, 0.1 NMOL IN 200 µL ACETONE APPLIED 1 HR PRIOR TO CARCINOGEN DOSES 2/WK FOR 16 WK (STUDY DURATION: 16 WK), Route [Carcinogen]: DERMAL, Route [Promoter]: DERMAL, Species: MOUSE, Strain/Sex: CD-1/FEMALE): skin: tumors

Structure (SMILES): O=C(OO)c1cccc(Cl)c1
- outcome [1]: integumentary system (skin)

Structure (SMILES): CCCCCCCC/C=C\CCCCCCCC(=O)OC
- outcome (Carcinogen: 7,12-DIMETHYLBENZ(A)ANTHRACENE, Doses [Carcinogen]: TOP, Route [Carcinogen]: DERMAL, Route [Promoter]: DERMAL, Species: MOUSE, Strain/Sex: MALE,FEMALE): integumentary system (skin)

Structure (SMILES): C[C@H](N)[C@H](O)c1cccc(O)c1
- outcome (Carcinogen: N-METHYL-N'-NITRO-N-NITROSOGUANADINE, 70-25-7, Doses [Carcinogen]: 25 UG/ML IN DRINKING WATER FOR 20 WK, Doses [Promoter]: 0, 5 MG/KG BW IN OLIVE OIL 1/2 D BEGINNING POST CARCINOGEN TREATMENT (STUDY DURATION: 52 WK), Route [Carcinogen]: ORAL, Route [Promoter]: SUBCUTANEOUS, Species: RAT, Strain/Sex: WISTAR/MALE): stomach: adenocarcinoma

Structure (SMILES): Oc1ccc(Br)cc1
- outcome [1]: integumentary system (skin)

Structure (SMILES): N
- outcome (Carcinogen: N-METHYL-N'-NITRO-N-NITROSOGUANIDINE, 70-25-7, Doses [Carcinogen]: 83 MG/L IN DRINKING WATER FOR 24 WK, Doses [Promoter]: 0, 0.01% IN DRINKING WATER BEGINNING POST LAST CARCINOGEN DOSE AND CONTINUING FOR 24 WK (STUDY DURATION: 48 WK), Route [Carcinogen]: ORAL, Route [Promoter]: ORAL, Species: RAT, Strain/Sex: SPRAGUE-DAWLEY/MALE): stomach: tumor
- outcome (Carcinogen: N-METHYL-N'-NITRO-N-NITROSOGUANIDINE, 70-25-7, Doses [Carcinogen]: 83 MG/L IN DRINKING WATER FOR 24 WK, Doses [Promoter]: 0, 0.01% IN DRINKING WATER FOR 24 WK BEGINNING POST CARCINOGEN TREATMENT (STUDY DURATION: 48 WK), Route [Carcinogen]: ORAL, Route [Promoter]: ORAL, Species: RAT, Strain/Sex: SPRAGUE-DAWLEY/MALE): stomach: adenocarcinoma
